{"source": "PubChem BioAssay (NCI)", "test_in_all_cases": "growth of human tumour cells (NCI), 48 h", "key": {"SK-MEL-28 melanoma": {"test_system": "SK-MEL-28 melanoma"}, "UACC-257 melanoma": {"test_system": "UACC-257 melanoma"}, "SR leukemia": {"test_system": "SR leukemia"}, "CAKI-1 renal": {"test_system": "CAKI-1 renal"}, "COLO 205 colon": {"test_system": "COLO 205 colon"}, "HCT-15 colon": {"test_system": "HCT-15 colon"}, "NCI/ADR-RES ovarian": {"test_system": "NCI/ADR-RES ovarian"}, "T-47D breast": {"test_system": "T-47D breast"}, "SK-MEL-5 melanoma": {"test_system": "SK-MEL-5 melanoma"}, "DU-145 prostate": {"test_system": "DU-145 prostate"}, "HL-60(TB) leukemia": {"test_system": "HL-60(TB) leukemia"}, "OVCAR-3 ovarian": {"test_system": "OVCAR-3 ovarian"}, "U251 CNS": {"test_system": "U251 CNS"}, "SW-620 colon": {"test_system": "SW-620 colon"}, "MCF7 breast": {"test_system": "MCF7 breast"}, "HCT-116 colon": {"test_system": "HCT-116 colon"}, "BT-549 breast": {"test_system": "BT-549 breast"}, "SF-295 CNS": {"test_system": "SF-295 CNS"}, "OVCAR-4 ovarian": {"test_system": "OVCAR-4 ovarian"}, "A498 renal": {"test_system": "A498 renal"}, "OVCAR-8 ovarian": {"test_system": "OVCAR-8 ovarian"}, "HCC-2998 colon": {"test_system": "HCC-2998 colon"}, "NCI-H23 lung": {"test_system": "NCI-H23 lung"}, "MDA-MB-231 breast": {"test_system": "MDA-MB-231 breast"}, "SK-MEL-2 melanoma": {"test_system": "SK-MEL-2 melanoma"}, "ACHN renal": {"test_system": "ACHN renal"}, "EKVX NSCLC": {"test_system": "EKVX NSCLC"}, "LOX IMVI melanoma": {"test_system": "LOX IMVI melanoma"}, "NCI-H460 lung": {"test_system": "NCI-H460 lung"}}, "note": "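Test compounds were applied to cells in 96-well plates for 48 hours at 5 doses. Abbreviation: GI50, concentration required for 50% inhibition of growth. Definition used: TGI = concentration required for complete inhibition of growth.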", "data": [{"smiles": "C=C(C)C(=O)O[C@H]1C[C@@]2(C)OC(=CC2=O)/C(C)=C\\[C@H]2OC(=O)C(=C)[C@H]12", "values": [{"measurement": "GI50", "setting": "SK-MEL-28 melanoma", "value": 788, "unit": "nM"}, {"measurement": "TGI", "setting": "SK-MEL-28 melanoma", "value": 1960, "unit": "nM"}, {"measurement": "GI50", "setting": "UACC-257 melanoma", "value": 872, "unit": "nM"}, {"measurement": "TGI", "setting": "UACC-257 melanoma", "value": 2280, "unit": "nM"}, {"measurement": "GI50", "setting": "SR leukemia", "value": 734, "unit": "nM"}, {"measurement": "TGI", "setting": "SR leukemia", "value": 6300, "unit": "nM"}, {"measurement": "GI50", "setting": "CAKI-1 renal", "value": 928, "unit": "nM"}, {"measurement": "TGI", "setting": "CAKI-1 renal", "value": 3120, "unit": "nM"}, {"measurement": "GI50", "setting": "COLO 205 colon", "value": 554, "unit": "nM"}, {"measurement": "TGI", "setting": "COLO 205 colon", "value": 1260, "unit": "nM"}, {"measurement": "GI50", "setting": "HCT-15 colon", "value": 795, "unit": "nM"}, {"measurement": "TGI", "setting": "HCT-15 colon", "value": 3290, "unit": "nM"}, {"measurement": "GI50", "setting": "NCI/ADR-RES ovarian", "value": 1110, "unit": "nM"}, {"measurement": "TGI", "setting": "NCI/ADR-RES ovarian", "value": "> 33200", "unit": "nM"}, {"measurement": "GI50", "setting": "T-47D breast", "value": 661, "unit": "nM"}, {"measurement": "TGI", "setting": "T-47D breast", "value": 3800, "unit": "nM"}, {"measurement": "GI50", "setting": "SK-MEL-5 melanoma", "value": 3670, "unit": "nM"}, {"measurement": "TGI", "setting": "SK-MEL-5 melanoma", "value": 13600, "unit": "nM"}, {"measurement": "GI50", "setting": "DU-145 prostate", "value": 968, "unit": "nM"}, {"measurement": "TGI", "setting": "DU-145 prostate", "value": 4180, "unit": "nM"}, {"measurement": "GI50", "setting": "HL-60(TB) leukemia", "value": 913, "unit": "nM"}, {"measurement": "TGI", "setting": "HL-60(TB) leukemia", "value": 2450, "unit": "nM"}, {"measurement": "GI50", "setting": "OVCAR-3 ovarian", "value": 863, "unit": "nM"}, {"measurement": "TGI", "setting": "OVCAR-3 ovarian", "value": 2920, "unit": "nM"}, {"measurement": "GI50", "setting": "U251 CNS", "value": 1750, "unit": "nM"}, {"measurement": "TGI", "setting": "U251 CNS", "value": 7160, "unit": "nM"}, {"measurement": "GI50", "setting": "SW-620 colon", "value": 705, "unit": "nM"}, {"measurement": "TGI", "setting": "SW-620 colon", "value": 1720, "unit": "nM"}, {"measurement": "GI50", "setting": "MCF7 breast", "value": 1000, "unit": "nM"}, {"measurement": "TGI", "setting": "MCF7 breast", "value": 5330, "unit": "nM"}, {"measurement": "GI50", "setting": "HCT-116 colon", "value": 530, "unit": "nM"}, {"measurement": "TGI", "setting": "HCT-116 colon", "value": 1210, "unit": "nM"}, {"measurement": "GI50", "setting": "BT-549 breast", "value": 927, "unit": "nM"}, {"measurement": "TGI", "setting": "BT-549 breast", "value": 3030, "unit": "nM"}, {"measurement": "GI50", "setting": "SF-295 CNS", "value": 5820, "unit": "nM"}, {"measurement": "TGI", "setting": "SF-295 CNS", "value": 18500, "unit": "nM"}, {"measurement": "GI50", "setting": "OVCAR-4 ovarian", "value": 1380, "unit": "nM"}, {"measurement": "TGI", "setting": "OVCAR-4 ovarian", "value": 6360, "unit": "nM"}, {"measurement": "GI50", "setting": "A498 renal", "value": 7420, "unit": "nM"}, {"measurement": "TGI", "setting": "A498 renal", "value": 16500, "unit": "nM"}, {"measurement": "GI50", "setting": "OVCAR-8 ovarian", "value": 1230, "unit": "nM"}, {"measurement": "TGI", "setting": "OVCAR-8 ovarian", "value": "> 33200", "unit": "nM"}, {"measurement": "GI50", "setting": "HCC-2998 colon", "value": 3300, "unit": "nM"}, {"measurement": "TGI", "setting": "HCC-2998 colon", "value": 8150, "unit": "nM"}, {"measurement": "GI50", "setting": "NCI-H23 lung", "value": 1540, "unit": "nM"}, {"measurement": "TGI", "setting": "NCI-H23 lung", "value": 8320, "unit": "nM"}, {"measurement": "GI50", "setting": "MDA-MB-231 breast", "value": 1180, "unit": "nM"}, {"measurement": "TGI", "setting": "MDA-MB-231 breast", "value": 4640, "unit": "nM"}, {"measurement": "GI50", "setting": "SK-MEL-2 melanoma", "value": 1400, "unit": "nM"}, {"measurement": "TGI", "setting": "SK-MEL-2 melanoma", "value": 6020, "unit": "nM"}, {"measurement": "GI50", "setting": "ACHN renal", "value": 625, "unit": "nM"}, {"measurement": "TGI", "setting": "ACHN renal", "value": 1600, "unit": "nM"}, {"measurement": "GI50", "setting": "EKVX NSCLC", "value": 1310, "unit": "nM"}, {"measurement": "TGI", "setting": "EKVX NSCLC", "value": 12200, "unit": "nM"}, {"measurement": "GI50", "setting": "LOX IMVI melanoma", "value": 601, "unit": "nM"}, {"measurement": "TGI", "setting": "LOX IMVI melanoma", "value": 1340, "unit": "nM"}, {"measurement": "GI50", "setting": "NCI-H460 lung", "value": 5010, "unit": "nM"}, {"measurement": "TGI", "setting": "NCI-H460 lung", "value": "> 33200", "unit": "nM"}]}]}
